Data taken from the supplement of paper PMC5844555.

Columns and labels:
Assay in all cases: 3' UTR reporter interaction score (median-centred robust z-score of log2 firefly/Renilla activity); higher = less repression of the 3' UTR reporter
Settings in all cases: HEK293T; 48 h
NOTCH1 = tested on: NOTCH1
Method in brief: (§1)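 Using DharmaFECT Duo, HEK293T cells (10,000/well, 96-well plates) were co-transfected with 2.5 pmol miRNA mimic, 100 ng firefly luc2P reporter containing the gene's 3' UTR and 20 ng Renilla pRL-TK control, and dual-luciferase activity was read 48 h later. The interaction score is the log firefly/Renilla ratio as a per-plate robust z-score (median, median absolute deviation), median-centred per miRNA, averaged over at least two independent screens; lower, more negative values indicate interaction.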

MYCN = tested on: MYCN
Method in brief: as §1

BRCA2 = tested on: BRCA2
Method in brief: as §1

MYB = tested on: MYB
Method in brief: as §1

TP53 = tested on: TP53
Method in brief: as §1

ZEB2 = tested on: ZEB2
Method in brief: as §1

MYC = tested on: MYC
Method in brief: as §1

EZH2 = tested on: EZH2
Method in brief: as §1

FBXW7 = tested on: FBXW7
Method in brief: as §1

PHOX2B = tested on: PHOX2B
Method in brief: as §1

MYT1L = tested on: MYT1L
Method in brief: as §1

HRAS = tested on: HRAS
Method in brief: as §1

PHF6 = tested on: PHF6
Method in brief: as §1

RB1 = tested on: RB1
Method in brief: as §1

| Sequence | 3' UTR reporter interaction score (NOTCH1) | 3' UTR reporter interaction score (MYCN) | 3' UTR reporter interaction score (BRCA2) | 3' UTR reporter interaction score (MYB) | 3' UTR reporter interaction score (TP53) | 3' UTR reporter interaction score (ZEB2) | 3' UTR reporter interaction score (MYC) | 3' UTR reporter interaction score (EZH2) | 3' UTR reporter interaction score (FBXW7) | 3' UTR reporter interaction score (PHOX2B) | 3' UTR reporter interaction score (MYT1L) | 3' UTR reporter interaction score (HRAS) | 3' UTR reporter interaction score (PHF6) | 3' UTR reporter interaction score (RB1) |
| --- | --- | --- | --- | --- | --- | --- | --- | --- | --- | --- | --- | --- | --- | --- |
| AAACUCUACUUGUCCUUCUGAGU | 0.753 | -0.333 | 1.32 | 0.312 | 0.757 | -1.55 | -0.658 | -0.108 | 2.09 | 0.571 | -0.888 | 0.16 | -0.863 | 0.409 |
| AGUGGGGAACCCUUCCAUGAGGA | -0.0192 | 0.0621 | 0.0202 | 0.186 | -3.21 | 1.02 | -0.465 | -0.974 | 0.423 | -0.69 | -1.79 | 0.144 | 0.14 | 0.472 |
| GCCCCUGGGCCUAUCCUAGAA | -0.931 | 0.221 | 0.566 | 0.244 | -0.179 | -0.237 | -0.282 | 0.389 | 0.0138 | -0.0536 | -0.294 | -0.133 | 2.01 | 0.411 |
| UCGUGCAUCCCUUUAGAGUGUU | -0.139 | 1.34 | 0.369 | -1.1 | -0.886 | -1.93 | -0.38 | 0.153 | 0.538 | -0.719 | -0.28 | -0.817 | 2.24 | 1.71 |
| CUGCAAAGGGAAGCCCUUUCU | -1.22 | 1.29 | -0.0732 | 1.16 | 0.104 | -4.11 | 1.15 | -3.8 | -3.15 | -0.887 | 0.529 | 0.112 | -2.67 | 1.27 |
| AUUCUGCAUUUUUAGCAAGU | -2.14 | 1.34 | -0.0751 | 1.56 | 0.643 | -0.209 | 1.31 | 0.847 | -2.1 | -0.262 | -2.22 | 0.548 | 0.263 | 0.0642 |
| UGUCAGUUUGUCAAAUACCCC | 0.533 | 0.673 | -0.428 | 0.7 | -1.17 | 1.58 | 0.119 | -0.235 | -3.7 | 1.35 | 0.484 | 0.221 | -0.327 | 0.229 |
| UUCCCUUUGUCAUCCUUCGCCU | -0.19 | 0.0207 | 0.539 | 0.781 | -0.355 | -0.675 | -0.168 | 0.0327 | -1.31 | -4.93 | -0.268 | -0.327 | 0.344 | 0.903 |
| ACUCAAAACCCUUCAGUGACUU | 0.701 | -0.913 | 0.794 | -1.17 | 1.13 | 0.456 | -0.294 | 0.495 | 0.994 | -0.184 | -0.111 | -0.68 | 1.5 | -0.026 |
